Drawing on patent US20230151003A1, “COMPOUNDS AND METHODS OF USE” (Exelixis, Inc., priority 2020, published 2023), this text covers IC50 for 19 molecules.

The target of test [1] is T1, Mer (Homo sapiens, UniProt Q12866).
T1 construct: host or cells: 293A cells (Thermo Fisher #R70507)
T1 sequence (Q12866 21-999): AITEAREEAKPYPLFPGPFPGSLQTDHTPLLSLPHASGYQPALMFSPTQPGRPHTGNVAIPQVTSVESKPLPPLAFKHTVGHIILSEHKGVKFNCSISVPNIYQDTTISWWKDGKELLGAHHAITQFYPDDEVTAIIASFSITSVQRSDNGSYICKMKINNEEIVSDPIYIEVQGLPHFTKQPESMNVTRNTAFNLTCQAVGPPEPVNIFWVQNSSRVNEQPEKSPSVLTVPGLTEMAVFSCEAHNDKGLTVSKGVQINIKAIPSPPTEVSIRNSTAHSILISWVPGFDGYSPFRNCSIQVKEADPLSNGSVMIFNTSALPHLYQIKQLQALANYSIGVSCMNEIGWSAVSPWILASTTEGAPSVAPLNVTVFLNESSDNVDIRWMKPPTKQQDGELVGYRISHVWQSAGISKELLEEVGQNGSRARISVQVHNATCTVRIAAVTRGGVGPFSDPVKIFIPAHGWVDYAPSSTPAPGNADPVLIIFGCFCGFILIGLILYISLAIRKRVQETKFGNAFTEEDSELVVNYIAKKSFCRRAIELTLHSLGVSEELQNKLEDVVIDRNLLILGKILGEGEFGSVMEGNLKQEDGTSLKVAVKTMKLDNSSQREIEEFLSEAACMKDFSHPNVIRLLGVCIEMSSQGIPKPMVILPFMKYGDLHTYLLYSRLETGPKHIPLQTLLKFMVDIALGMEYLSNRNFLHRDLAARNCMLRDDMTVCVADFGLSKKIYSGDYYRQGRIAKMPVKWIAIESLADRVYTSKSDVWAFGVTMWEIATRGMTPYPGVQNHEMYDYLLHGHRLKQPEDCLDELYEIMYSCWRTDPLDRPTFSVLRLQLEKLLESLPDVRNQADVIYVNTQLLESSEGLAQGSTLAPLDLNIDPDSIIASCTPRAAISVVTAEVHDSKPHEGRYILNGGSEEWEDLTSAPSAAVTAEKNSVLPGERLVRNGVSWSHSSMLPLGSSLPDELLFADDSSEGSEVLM
In words: Mer autophosphorylation ELISA in transient transfected 293A cells. The format is cell-based. The note with it: Table 3 Cellular Activities; MERTK-transfected 293A cells, phospho-Mer ELISA. In outline: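 293A cells transiently transfected with human MERTK DNA, replated after 24 h, then treated 1 h with 8-point compound dilutions in serum-free medium (0.3% DMSO). Lysates assayed by phospho-Mer sandwich ELISA against phospho-Mer standard; DMSO = 100%, reference inhibitor = 0% activity; IC50 by 4-parameter logistic fit.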
On the technique in general: ELISA stands for enzyme-linked immunosorbent assay.

For test [2], the target named is KDR (Homo sapiens, UniProt P35968). In words: KDR autophosphorylation ELISA in HUVEC cells. The note with it: Table 3 Cellular Activities, VEGF165-stimulated, phospho-KDR ELISA. The format is cell-based. The arrangement: endogenous in cells; host or cells: HUVEC (Lonza #C2519A). In outline: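 HUVECs grown 24 h at 37 °C, then serum-starved 24 h, were preincubated 1 h with an 8-point compound series (0.3% DMSO) and stimulated with 100 ng/mL human VEGF165 for 5 min. Phospho-KDR in lysates was measured by sandwich ELISA against a phospho-KDR standard; IC50 from 4-parameter logistic fit.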
KDR, sequence (P35968 20-1356): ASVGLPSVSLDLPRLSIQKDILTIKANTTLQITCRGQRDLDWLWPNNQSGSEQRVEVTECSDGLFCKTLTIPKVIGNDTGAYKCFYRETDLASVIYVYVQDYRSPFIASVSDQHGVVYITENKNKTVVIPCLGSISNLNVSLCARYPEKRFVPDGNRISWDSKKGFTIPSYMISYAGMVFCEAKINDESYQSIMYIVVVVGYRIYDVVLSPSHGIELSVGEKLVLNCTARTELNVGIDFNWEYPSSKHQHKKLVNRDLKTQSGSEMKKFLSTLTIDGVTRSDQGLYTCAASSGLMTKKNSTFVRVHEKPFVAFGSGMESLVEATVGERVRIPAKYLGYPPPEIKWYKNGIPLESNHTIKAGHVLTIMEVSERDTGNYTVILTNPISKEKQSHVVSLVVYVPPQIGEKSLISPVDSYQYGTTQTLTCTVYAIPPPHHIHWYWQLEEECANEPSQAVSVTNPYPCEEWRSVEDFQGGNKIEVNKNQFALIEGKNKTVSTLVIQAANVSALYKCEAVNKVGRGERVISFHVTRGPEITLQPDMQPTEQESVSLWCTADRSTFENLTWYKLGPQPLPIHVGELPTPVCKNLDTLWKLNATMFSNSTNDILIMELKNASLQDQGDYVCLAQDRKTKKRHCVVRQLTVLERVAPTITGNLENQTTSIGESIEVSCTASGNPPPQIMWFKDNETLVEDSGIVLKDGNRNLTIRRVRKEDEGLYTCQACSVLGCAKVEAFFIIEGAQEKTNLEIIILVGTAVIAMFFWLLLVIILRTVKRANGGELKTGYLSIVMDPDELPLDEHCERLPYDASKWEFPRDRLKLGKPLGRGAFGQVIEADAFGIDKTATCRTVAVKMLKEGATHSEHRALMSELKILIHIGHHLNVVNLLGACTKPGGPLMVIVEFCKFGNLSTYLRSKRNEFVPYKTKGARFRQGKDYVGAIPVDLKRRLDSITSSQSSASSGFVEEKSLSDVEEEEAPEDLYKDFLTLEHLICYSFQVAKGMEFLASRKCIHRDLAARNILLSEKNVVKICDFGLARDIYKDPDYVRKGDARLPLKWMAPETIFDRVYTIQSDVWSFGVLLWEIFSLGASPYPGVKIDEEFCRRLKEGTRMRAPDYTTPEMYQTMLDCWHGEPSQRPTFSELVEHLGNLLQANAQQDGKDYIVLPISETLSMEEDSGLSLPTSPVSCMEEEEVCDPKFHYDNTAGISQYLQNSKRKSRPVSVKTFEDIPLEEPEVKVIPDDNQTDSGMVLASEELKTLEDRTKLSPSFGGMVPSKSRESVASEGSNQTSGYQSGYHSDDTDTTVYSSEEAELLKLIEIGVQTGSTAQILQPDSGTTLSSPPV

Take `COc1cc2nccc(Oc3ccc(NC(=O)c4c(C)ncc(-c5ccccn5)c4O)cc3F)c2nc1OC` [Compound 69, N-[4-[(6,7-Dimethoxy-1,5-naphthyridin-4-yl)oxy]-3-fluorophenyl]-4-hydroxy-2-methyl-5-pyridin-2-ylpyridine-3-carboxamide]: the IC50 in test [1] and in test [2] was not above 100 nM throughout.

Consider `COc1cc2nccc(Oc3ccc(NC(=O)c4c5n(cc(-c6ccc(C)s6)c4=O)CCOC5)cc3)c2nc1OC` [Compound 305, N-[4-[(6,7-Dimethoxy-1,5-naphthyridin-4-yl)oxy]phenyl]-7-(5-methylthiophen-2-yl)-8-oxo-3,4-dihydro-1H-pyrido[2,1-c][1,4]oxazine-9-carboxamide], for which the IC50 (in general, the concentration at which inhibition is half-maximal) in test [1] was not above 100 nM; in test [2] it was 300 to 1000 nM.

For the molecule `COc1cc2nccc(Oc3ccc(NC(=O)c4ccc(C)n(-c5ccncc5)c4=O)cc3F)c2nc1OC` [Compound 221, N-[4-[(6,7-Dimethoxy-1,5-naphthyridin-4-yl)oxy]-3-fluorophenyl]-6-methyl-2-oxo-1-pyridin-4-ylpyridine-3-carboxamid], the IC50 in test [1] and in test [2] was not above 100 nM each time.

Regarding `COc1cnc2c(Oc3ccc(NC(=O)c4c(C)ncc(-c5ccccn5)c4O)cc3F)ccnc2c1` [Compound 70, N-[3-Fluoro-4-[(7-methoxy-1,5-naphthyridin-4-yl)oxy]phenyl]-4-hydroxy-2-methyl-5-pyridin-2-ylpyridine-3-carboxamide], the IC50 in test [1] and in test [2] was not above 100 nM throughout.

On to `COCCOc1cc2nccc(Oc3ccc(NC(=O)c4c(C)n(C)c(C)c(-c5coc6ccccc56)c4=O)cc3F)c2nc1OC` [Compound 264, 5-(1-Benzofuran-3-yl)-N-[3-fluoro-4-[[6-methoxy-7-(2-methoxyethoxy)-1,5-naphthyridin-4-yl]oxy]phenyl]-1,2,6-trimethyl-4-oxopyridine-3-carboxamide], for which the IC50 in test [1] is not above 100 nM; in test [2], 300 to 1000 nM.

As for `COCCOc1cc2nccc(Oc3ccc(NC(=O)c4cnc(C)c(-c5ccco5)c4O)cc3F)c2nc1OC` [Compound 260, N-[3-Fluoro-4-[[6-methoxy-7-(2-methoxyethoxy)-1,5-naphthyridin-4-yl]oxy]phenyl]-5-(furan-2-yl)-4-hydroxy-6-methylpyridine-3-carboxamide], the IC50 in test [1] and in test [2] was not above 100 nM each time.

With `COc1cc2nccc(Oc3ccc(NC(=O)c4c(C)ncc(-c5ncc(F)cc5C)c4O)cc3F)c2nc1OC` [Compound 200, N-[4-[(6,7-Dimethoxy-1,5-naphthyridin-4-yl)oxy]-3-fluorophenyl]-5-(5-fluoro-3-methylpyridin-2-yl)-4-hydroxy-2-methylpyridine-3-carboxamide], the IC50 in test [1] and in test [2] was not above 100 nM in each case.

As to `COc1cc2nccc(Oc3ccc(NC(=O)c4c(C)n(C)cc(-c5ccc(F)cn5)c4=O)cc3)c2nc1OC` [Compound 72, N-[4-[(6,7-Dimethoxy-1,5-naphthyridin-4-yl)oxy]phenyl]-5-(5-fluoropyridin-2-yl)-1,2-dimethyl-4-oxopyridine-3-carboxamide], the IC50 was not above 100 nM in test [1] and 300 to 1000 nM in test [2].

As to `COc1cc2nccc(Oc3ccc(NC(=O)c4c5n(cc(-c6cc(C)cs6)c4=O)CCOC5)cc3)c2nc1OC` [Compound 303, N-[4-[(6,7-Dimethoxy-1,5-naphthyridin-4-yl)oxy]phenyl]-7-(4-methylthiophen-2-yl)-8-oxo-3,4-dihydro-1H-pyrido[2,1-c][1,4]oxazine-9-carboxamide], the results for the IC50 in test [1] and in test [2] were not above 100 nM and 300 to 1000 nM, respectively.

Take `COc1cc2nccc(Oc3ccc(NC(=O)c4cnc(C)c(-c5cccs5)c4O)cc3)c2nc1OC` [Compound 256, N-[4-[(6,7-Dimethoxy-1,5-naphthyridin-4-yl)oxy]phenyl]-4-hydroxy-6-methyl-5-thiophen-2-ylpyridine-3-carboxamide]: the IC50 in test [1] and in test [2] was not above 100 nM each time.

For the molecule `COc1cc2nccc(Oc3ccc(NC(=O)c4c(C)ccn(-c5ccc(F)cn5)c4=O)cc3F)c2nc1OC` [Compound 41, N-[4-[(6,7-Dimethoxy-1,5-naphthyridin-4-yl)oxy]-3-fluorophenyl]-1-(5-fluoropyridin-2-yl)-4-methyl-2-oxopyridine-3-carboxamide], the IC50 in test [1] and in test [2] was not above 100 nM each time.

Take `COc1cc2nccc(Oc3ccc(NC(=O)c4cnc(C)c(-c5ccc(F)cn5)c4O)cc3F)c2nc1OC` [Compound 85, N-[4-[(6,7-Dimethoxy-1,5-naphthyridin-4-yl)oxy]-3-fluorophenyl]-5-(5-fluoropyridin-2-yl)-4-hydroxy-6-methylpyridine-3-carboxamide]: the IC50 in test [1] and in test [2] was not above 100 nM throughout.

Consider `COc1cc2nccc(Oc3ccc(NC(=O)c4c5n(cc(-c6ccco6)c4=O)CCOC5)cc3F)c2nc1OC` [Compound 297, N-[4-[(6,7-Dimethoxy-1,5-naphthyridin-4-yl)oxy]-3-fluorophenyl]-7-(furan-2-yl)-8-oxo-3,4-dihydro-1H-pyrido[2,1-c][1,4]oxazine-9-carboxamide], for which the IC50 is not above 100 nM in test [1] and 300 to 1000 nM in test [2].

Regarding `CCc1c(C(=O)Nc2ccc(Oc3ccnc4cc(OC)c(OC)nc34)c(F)c2)c(=O)c(-c2ccco2)c(C)n1C` [Compound 324, N-[4-[(6,7-Dimethoxy-1,5-naphthyridin-4-yl)oxy]-3-fluorophenyl]-2-ethyl-5-(furan-2-yl)-1,6-dimethyl-4-oxopyridine-3-carboxamide], the IC50 in test [1] and in test [2] was not above 100 nM each time.

For `COc1cnc2c(Oc3ccc(NC(=O)c4cc(C(C)=O)c(C)n(-c5ccco5)c4=O)cc3F)ccnc2c1` [Compound 238, 5-Acetyl-N-[3-fluoro-4-[(7-methoxy-1,5-naphthyridin-4-yl)oxy]phenyl]-1-(furan-2-yl)-6-methyl-2-oxopyridine-3-carboxamide], the IC50 in test [1] and in test [2] was 300 to 1000 nM throughout.

`COc1cc2nccc(Oc3ccc(NC(=O)c4ncc(C)n(-c5ccc(F)cn5)c4=O)cc3F)c2nc1OC` [Compound 219, N-[4-[(6,7-Dimethoxy-1,5-naphthyridin-4-yl)oxy]-3-fluorophenyl]-4-(5-fluoropyridin-2-yl)-5-methyl-3-oxopyrazine-2-carboxamide]: the IC50 in test [1] and in test [2] was not above 100 nM throughout.

Turning to `COc1cnc2c(Oc3ccc(NC(=O)c4cc(C(C)=O)c(C)n(-c5ccoc5)c4=O)cc3F)ccnc2c1` [Compound 240, 5-Acetyl-N-[3-fluoro-4-[(7-methoxy-1,5-naphthyridin-4-yl)oxy]phenyl]-1-(furan-3-yl)-6-methyl-2-oxopyridine-3-carboxamide], the IC50 was not above 100 nM in test [1] and 300 to 1000 nM in test [2].

As to `COc1cc(-n2c(C)ccc(C(=O)Nc3ccc(Oc4ccnc5cc(OC)c(OC)nc45)c(F)c3)c2=O)ccn1` [Compound 226, N-[4-[(6,7-Dimethoxy-1,5-naphthyridin-4-yl)oxy]-3-fluorophenyl]-1-(2-methoxypyridin-4-yl)-6-methyl-2-oxopyridine-3-carboxamide], the IC50 in test [1] and in test [2] was not above 100 nM each time.

Regarding `Cc1ccc(C(=O)Nc2ccc(Oc3ccnc4cnc(Cl)cc34)c(F)c2)c(=O)n1-c1ccc(F)cn1` [Compound 54A, N-[4-[(6-Chloro-1,7-naphthyridin-4-yl)oxy]-3-fluorophenyl]-1-(5-fluoropyridin-2-yl)-6-methyl-2-oxopyridine-3-carboxamide], the IC50 in test [1] was not above 100 nM; in test [2], 100 to 300 nM.
